Here are results for six compounds from patent US20240294521A1, “CRYSTALLINE FORMS, COMPOSITIONS CONTAINING SAME, AND METHODS OF THEIR USE” (Repare Therapeutics Inc., priority 2021, published 2024).

≈ marks a conversion by molar mass, not a printed value. Entries after “also recorded” stand apart in the source; their conditions may differ. Structures can show the parent of a compound that is named as a salt. Where two headings read alike, the source gives them in different places.

Common to all, as to format: physicochemical
Data set [1] can be described thus: Dynamic Vapor Sorption analysis (DVS), hygroscopicity. The note with it: for Hygroscopicity by DVS: 25° C./0-90% RH change; for form change by XRPD after DVS: after 0-90% RH; for Hygroscopicity: weight increase at 80% RH, 25° C.; for moisture uptake: 0-90% RH change by DVS. The method, then: Dynamic Vapor Sorption Analysis (DVS)
• Instrument: DVS Intrinsic, Surface Measurement Systems • Parameters: 25° C., 0-90-0% RH for 2 cycles

Data set [2] can be described thus: Water solubility of free form solid states at room temperature. Conditions: for XRPD Pattern (solubility measured on); form in water: suspended in water, XRPD after 1 day, PLM after 5 days; for form after suspension in water (microscopic images): five days, room temperature. The protocol:
Example 4. Water Solubility of Free Form Solid States at Room Temperature
The samples were shaken at 25° C., 200 rpm. XRPD (taken after the crystalline forms were mixed with water, and after 1 day suspended in water) and PLM (after 5 days) were recorded. […] Table 13 summarizes the water solubility of crystalline forms C and F.

Data set [3] can be described thus: Form stability of crystalline form F in 0.5% methylcellulose (400 cps)/0.02% sodium lauryl sulfate. The protocol: The samples were evaluated at designated time points and PLM images were recorded up to 7 days.
Data set [4] can be described thus: Storage stability of the crystalline forms (25° C./60% RH, 40° C./75% RH). The note with it: for XRPD of the samples after exposure vs t=0: 25° C./60% RH and 40° C./75% RH, closed and open vial, 1, 2 and 4 weeks; for appearance after exposure / solid-form stability (XRPD): one-week exposure to 75% RH at 40° C. The protocol:
Example 8. Storage Stability of the Crystalline Forms
The forms were evaluated with a closed vial and an open vial.
Crystalline Hydrogen Sulfate Form B. […] Approximately 30 mg of crystalline hydrogen sulfate form B was weighed into a 4 mL vial and covered with a KIMWIPE. […]
Crystalline Sulfate Form A. […] Approximately 30 mg of crystalline sulfate form A was weighed into a 4 mL vial and covered with a KIMWIPE. […]

Data set [5] in a line: Form stability of crystalline hydrogen sulfate forms A and B in buffered 0.5% methylcellulose/0.02% sodium lauryl sulfate. The method, then:
Example 7. Form Stability of Crystalline Hydrogen Sulfate Forms A and B in Buffered 0.5% Methylcellulose (v/v) (400 cps)/0.02% Sodium Lauryl Sulfate (v/v)
Crystalline hydrogen sulfate form A was used for form stability studies in 0.5% methylcellulose (v/v) (400 cps)/0.02% sodium lauryl sulfate (v/v) with citrate buffer (pH 4.5) with a concentration of 0.1 mg/mL, 0.2 mg/mL, 0.5 mg/mL and 1 mg/mL with and without stirring. HPLC purity was obtained for the solutions at 3 and 7 days.
An additional sample of crystalline hydrogen sulfate form A in the same buffered formulation was prepared with a concentration of 1 mg/ml and stirred at 500 rpm at room temperature. The sample was monitored every hour for form assessment. The solution was nearly clear at the first 3 hours.

Assay in data set [6]: as above
Conditions: 10 mg in 10 mL MC/SLS with (pH 4.5) and without sodium citrate buffer, 500 rpm, room temperature, overnight.

Data set [7] in a line: Dynamic Vapor Sorption analysis (DVS), hygroscopicity. Conditions: 2-95% RH.
The mark [8] stands for this setting: 25° C./60% RH, t = 4 weeks, open vial.
The mark [9] stands for this setting: 25° C./60% RH, t = 7 d, open vial.
The mark [10] stands for this setting: 25° C./60% RH, t = 14 d, open vial.
[11] abbreviates: 40° C./75% RH, t = 4 weeks, closed vial.
Setting [12] is: 40° C./75% RH, t = 4 weeks, open vial.
[13] abbreviates: 40° C./75% RH, t = 7 d, open vial.
Where [14] appears, read: 40° C./75% RH, t = 14 d, open vial.

For the compound `C[C@@H]1COCCN1c1cc([C@]2(O)C[C@H]3CC[C@@H](C2)O3)c2cnn(-c3cc[nH]n3)c2n1` [Crystalline form B], in data set [1], the “Hygroscopicity by DVS” value was “slightly hygroscopic”; the “form change by XRPD after DVS” value is recorded as “did not change”; the Hygroscopicity result is “Slightly hygroscopic (e.g., ≥0.2% and <2% (Slightly hygroscopic (e.g., ≥0.2% and <2% weight increase at 80% RH, 25° C.))”. Besides, in data set [2] (25° C.), the “XRPD Pattern (solubility measured on); form in water” value is recorded as “converted to crystalline form C”. Moreover, in data set [2] (water, 25 °C, water, thermodynamic from solid, water, 25° C., label = starting material, measured on the form named in the XRPD Pattern column, read-out: Solubility), the solubility turned out to be 50 µg/mL (≈ 122 µM). In addition, the “form after suspension in water (microscopic images)” value in data set [2] (water) is given as “converted to crystalline form C”.

Regarding `C[C@@H]1COCCN1c1cc([C@]2(O)C[C@H]3CC[C@@H](C2)O3)c2cnn(-c3cc[nH]n3)c2n1` [Crystalline form C], in data set [1], the “Hygroscopicity by DVS” value is on record as “slightly hygroscopic”; the “form change by XRPD after DVS” value was “XRPD pattern changed after DVS compared to the starting material and matched with crystalline form J”; the Hygroscopicity result is “Slightly hygroscopic (e.g., ≥0.2% and <2% weight (Slightly hygroscopic (e.g., ≥0.2% and <2% weight increase at 80% RH, 25° C.))”. Also, the solubility in data set [2] (water, 25 °C, water, thermodynamic from solid, water, 25° C., read-out: water solubility) is approximately 50 µg/mL (≈ 122 µM).

Turning to `C[C@@H]1COCCN1c1cc([C@]2(O)C[C@H]3CC[C@@H](C2)O3)c2cnn(-c3cc[nH]n3)c2n1` [Crystalline form F], in data set [1], the “Hygroscopicity by DVS” value is given as “non hygroscopic”. Further, the “form change by XRPD after DVS” value in data set [1] is “no form change”. The Hygroscopicity entry in data set [1] was “Non hygroscopic (e.g., <0.2% weight increase at (Non hygroscopic (e.g., <0.2% weight increase at 80% RH, 25° C.))”. Further, the “XRPD Pattern (solubility measured on); form in water” value in data set [2] (25° C.) is reported as “remained unchanged; also recorded: Crystalline form F”. Further, the water solubility result in data set [2] (water, 25° C.) is recorded as “about 0.046 mg/mL”. In data set [2] (water, 25° C., label = starting material, measured on the form named in the XRPD Pattern column), this compound showed a solubility of 46 µg/mL (≈ 112 µM). Moreover, the “form after suspension in water (microscopic images)” value in data set [2] (water) was “unchanged”. Besides, the “aqueous solubility (qualitative)” value in data set [3] is on record as “very low”. For the same compound, in data set [3] (0.5% methylcellulose (400 cps)/0.02% sodium lauryl sulfate, room temperature, 7 days, PLM and XRPD), the form change result is given as “No form change”. In addition, the “XRPD of the samples after exposure vs t=0” value in data set [4] is “matched with the starting materials”. The DSC result in data set [4] (setting [8]), in data set [4] (setting [9]), in data set [4] (setting [10]), in data set [4] (setting [11]), in data set [4] (setting [12]) and in data set [4] (setting [13]) was “No change” throughout. In addition, in data set [4] (setting [14]), the DSC result is “No change”. Moreover, the HPLC in data set [4] (setting [8]) was determined as 99.94%; in data set [4] (setting [9]) it was 99.925%; in data set [4] (setting [10]), 100%; in data set [4] (setting [11]), 99.94%; in data set [4] (setting [12]), 99.94%; in data set [4] (setting [13]), 99.922%. Also, the HPLC came to 100% in data set [4] (setting [14]) and 99.903% in data set [4] (t = 0). In addition, the “TG weight loss by 170° C.” value in data set [4] (setting [8]), in data set [4] (setting [9]), in data set [4] (setting [10]), in data set [4] (setting [11]), in data set [4] (setting [12]) and in data set [4] (setting [13]) was 4.2 wt % loss each time. In addition, the “TG weight loss by 170° C.” value is given as 4.2 wt % loss in data set [4] (setting [14]) and 4.7 wt % loss by in data set [4] (t = 0). The XRPD result in data set [4] (setting [8]), in data set [4] (setting [9]), in data set [4] (setting [10]), in data set [4] (setting [11]), in data set [4] (setting [12]) and in data set [4] (setting [13]) was “No change” each time. In data set [4] (setting [14]), the XRPD entry is “No change”.

Regarding `C[C@@H]1COCCN1c1cc([C@]2(O)C[C@H]3CC[C@@H](C2)O3)c2cnn(-c3cc[nH]n3)c2n1` [Crystalline hydrogen sulfate form A], the moisture uptake in data set [1] was 1.42%. Besides, the “Hygroscopicity by DVS” value in data set [1] is recorded as “slightly hygroscopic”. Also, in data set [1], the “form change by XRPD after DVS” value was “No form change”. In addition, the Hygroscopicity result in data set [1] was “Slightly hygroscopic (e.g., ≥0.2% and <2% weight (Slightly hygroscopic (e.g., ≥0.2% and <2% weight increase at 80% RH, 25° C.))”. Further, the “HPLC purity of solution” value in data set [5] (0.1 mg/mL, stir, Day 3, MC/SLS with 50 mM citrate buffer (pH 4.5)) was determined as 99.82%; in data set [5] (0.1 mg/mL, stir, Day 7, MC/SLS with 50 mM citrate buffer (pH 4.5)), 99.93%; in data set [5] (0.1 mg/mL, w/o stir, Day 3, MC/SLS with 50 mM citrate buffer (pH 4.5)), 99.82%; in data set [5] (0.2 mg/mL, stir, Day 3, MC/SLS with 50 mM citrate buffer (pH 4.5)) it was 99.89%; in data set [5] (0.2 mg/mL, stir, Day 7, MC/SLS with 50 mM citrate buffer (pH 4.5)), 99.86%; in data set [5] (0.2 mg/mL, w/o stir, Day 3, MC/SLS with 50 mM citrate buffer (pH 4.5)), 99.89%. The “HPLC purity of solution” value was 99.91% in data set [5] (0.5 mg/mL, stir, Day 3, MC/SLS with 50 mM citrate buffer (pH 4.5)); 99.87% in data set [5] (0.5 mg/mL, stir, Day 7, MC/SLS with 50 mM citrate buffer (pH 4.5)); 99.91% in data set [5] (0.5 mg/mL, w/o stir, Day 3, MC/SLS with 50 mM citrate buffer (pH 4.5)); 99.93% in data set [5] (1 mg/mL, stir, Day 3, MC/SLS with 50 mM citrate buffer (pH 4.5)); 99.94% in data set [5] (1 mg/mL, stir, Day 7, MC/SLS with 50 mM citrate buffer (pH 4.5)); 99.89% in data set [5] (1 mg/mL, w/o stir, Day 3, MC/SLS with 50 mM citrate buffer (pH 4.5)). In addition, the “form assessment (precipitate, XRPD)” value in data set [5] (1 mg/ml in buffered MC/SLS, stirred at 500 rpm, room temperature, monitored every hour) was “After 4 hours, crystalline form C was observed; also recorded: Precipitation of the free form, crystalline form C was observed after 3 hours”. Further, the “purity of the solutions (HPLC)” value in data set [5] (0.1-1 mg/mL, with and without stirring, 3 and 7 days, citrate buffer pH 4.5) is reported as 99.8-99.9%. The “XRPD of the samples after exposure vs t=0” value in data set [4] is “matched with the starting materials”. Besides, the HPLC worked out at 99.92% in data set [4] (25° C./60% RH, t = 4 weeks, closed vial); 99.91% in data set [4] (setting [8]); 99.936% in data set [4] (25° C./60% RH, t = 7 d, closed vial); 99.937% in data set [4] (setting [9]); 100% in data set [4] (25° C./60% RH, t = 14 d, closed vial); 99.944% in data set [4] (setting [10]). Besides, the HPLC in data set [4] (setting [11]) is listed as 99.92%; in data set [4] (setting [12]), 99.91%; in data set [4] (40° C./75% RH, t = 7 d, closed vial), 99.938%; in data set [4] (setting [13]), 99.938%; in data set [4] (40° C./75% RH, t = 14 d, closed vial), 100%; in data set [4] (setting [14]) it was 100%. The compound further yielded an HPLC in data set [4] (t = 0, baseline before storage) of 99.902%.

`C[C@@H]1COCCN1c1cc([C@]2(O)C[C@H]3CC[C@@H](C2)O3)c2cnn(-c3cc[nH]n3)c2n1` [Crystalline hydrogen sulfate form B]: in data set [1], the moisture uptake is 15.75%; the “Hygroscopicity by DVS” value was “hygroscopic”; the Hygroscopicity entry was “Hygroscopic (e.g., ≥2% and <15% weight increase (Hygroscopic (e.g., ≥2% and <15% weight increase at 80% RH, 25° C.))”. Also, in data set [4], the appearance after exposure entry was “remained a flowable, white powder” and the “solid-form stability (XRPD)” value is recorded as “no significant changes”. Also, in data set [6], the “resulting solid form (XRPD)” value was “convert to crystalline form C; also recorded: The resulting solids were determined to be the free form, crystalline form C as confirmed by XRPD (FIG. 38)”.

For `C[C@@H]1COCCN1c1cc([C@]2(O)C[C@H]3CC[C@@H](C2)O3)c2cnn(-c3cc[nH]n3)c2n1` [Crystalline sulfate form A], in data set [4], the appearance after exposure entry is “remained a flowable, white powder” and the “solid-form stability (XRPD)” value is reported as “changed to a mixture of crystalline sulfate form A+another crystalline form of a sulfate salt”. Moreover, in data set [7], the Hygroscopicity result is reported as “Hygroscopic” and the weight increase is listed as 2.8%.

The solubility is how much of the substance goes into solution per volume.
